Like-named read-outs stand apart in the source and are kept apart here.
Experiments:
[1] = test system: Human ovarian cancer cell line SKOV3; experiment: Inherent cytotoxicity (dark toxicity) in SKOV3 cells (AlamarBlue viability); format: cell-based
Procedure: Photosensitizers (e.g. chlorin analogue, chlorin e4 disodium (provided by Advanced Molecular Technologies, Scoresby) or Talaporfin sodium (purchased from Focus Bioscience cat #HY-16477-5MG)) were resuspended in 100% dimethylsulfoxide (DMSO) at a concentration of 5.5 mM. Samples were stored at 4° C. protected from light.
All data are shown as mean±SD (where appropriate).
Untreated cells were used as a control. […] All measurements were made in quadruplicate.

[2] = test system: Human ovarian cancer cell line SKOV3; experiment: Phototoxicity in SKOV3 cells after 660 nm laser or LED activation (AlamarBlue viability); format: cell-based; details: SKOV3 cells; for IC90: 24 hours uptake, 50 mW/cm^2 for 5 mins (15 J/cm^2)
Procedure: Samples were stored at 4° C. protected from light. […] All data are shown as mean±SD (where appropriate). […] Laser and LED exposure induce an equivalent response in relation to phototoxicity. Following activation, cells were cultured for a further 24 hours. Media was then replaced with fresh media containing AlamarBlue, and % viable cells remaining assessed as above. Controls included cells treated with reduced chlorin analogues but not activated by laser light; cells without reduced chlorin analogue treatment but with laser light; and untreated controls. All measurements were made in quadruplicate.

[3] = test system: indomethacin-induced gastric lesions; details: rats; background statement; cited from earlier work
[4] = test system: TAA- or CCl4-induced acute liver injuries; details: mice; background statement; cited from earlier work
[5] = test system: C57BL/6 mice; experiment: Acute toxicity after intraperitoneal injection into mice; format: in vivo; details: 5 mg/kg intraperitoneal, observed for 30 mins, prepared with 1% PVP in PBS+20 mM HEPES
Procedure: To assess acute toxicity, reduced phyllochlorin or chlorin e4 disodium (each prepared with 1% PVP in PBS+20 mM HEPES) were administered at a dose of 5 mg/kg to C57BL/6 mice by intraperitoneal injection.

[6] = Estimated pKa of the carboxylic acid; format: physicochemical; details: estimate, no measurement described
Source text: As PBS buffer (pH 7.4) is used in the experiments and the carboxylic acid in reduced phyllochlorin (and the same carboxy group in other related chlorins) is estimated to have a pKa of less than 5, reduced phyllochlorin in the PBS buffer will exist predominantly as the sodium and potassium salts with very little to no free acid.

[7] = Homo sapiens, SK-OV-3, light or radiation study, 660 nm LED panel, values marked *, read-out: Phototoxicity μM (IC90), measured by LED
[8] = SKOV3 cells, 24 hours incubation, no light activation
[9] = 660 nm laser, viability 24 hours after activation, read-out: Phototoxicity μM (IC90)

CCC1=C(C)c2cc3[nH]c(cc4nc(c(C)c5[nH]c(cc1n2)c(C)c5C(=O)O)[C@@H](CCC(=O)O)[C@@H]4C)c(C)c3CC [Compound 36, Reduced Chlorin e4]
Dark toxicity μM (IC10) ([1]; human, 24 h): 12.200 µM
IC90 ([2]; Homo sapiens, SK-OV-3, light or radiation study, 660 nm laser, viability 24 hours after activation, read-out: Phototoxicity μM (IC90)): 4.36 µM

CCC1=C(C)c2cc3[nH]c(cc4nc(c5c6[nH]c(cc1n2)c(C)c6C(=O)OC5)[C@@H](CCC(=O)O)[C@@H]4C)c(C)c3CC [Compound 39, Reduced Chlorin K]
Dark toxicity μM (IC10) ([1]; human, 24 h): 6.613 µM
IC90 [2, 7]: 0.141 µM

CCC1=C(C)c2cc3[nH]c(cc4nc(c5c6[nH]c(cc1n2)c(C)c6C(=O)OC5)[C@@H](CCC(=O)N(C)CCCS[C@@H]1O[C@H](CO)[C@@H](O)[C@H](O)[C@H]1O)[C@@H]4C)c(C)c3CC [Compound 40, Reduced Chlorin K β-D-1-thioglucose-N-methylpropylamide]
Dark toxicity μM (IC10) ([1]; human, 24 h): 3.222 µM
IC90 [2, 7]: 0.229 µM

C=Cc1c(C)c2cc3nc(c(C)c4[nH]c(cc5nc(cc1[nH]2)C(C)=C5CC)c(C)c4C(=O)O)[C@@H](CCC(=O)O)[C@@H]3C [chlorin e4, Chlorin e4]
effect against indomethacin-induced gastric lesions [3]: protective effect
effect against TAA- or CCl4-induced acute liver injuries [4]: protective effect

Phyllochlorin free acid [reference compound]
Dark toxicity μM (IC10) [1, 8]: 13.50 µM
IC90 [2, 9]: 0.43 µM

Phyllochlorin sodium salt [reference compound]
Dark toxicity μM (IC10) [1, 8]: 21.96 µM
IC90 [2, 9]: 0.35 µM

Reduced Phyllochlorin Methyl Ester [Compound 6]
Dark toxicity μM (IC10) [1]: 11.650 µM
IC90 [2, 9]: 0.371 µM

Reduced Phyllochlorin N-(2-(2-(2-picolinylethoxy)ethoxy)ethyl)-N-methyl-3-amide chloride [Compound 28]
Dark toxicity μM (IC10) [1, 8]: 1.510 µM
IC90 ([2]; 660 nm LED panel, values marked *, read-out: Phototoxicity μM (IC90), measured by LED): 0.0326 µM

Reduced Phyllochlorin N-(2-(2-hydroxyethoxy)ethyl)-N-methylpropylamide [Compound 7]
Dark toxicity μM (IC10) [1]: 26.100 µM
IC90 [2, 9]: 0.036 µM

Reduced Phyllochlorin [Compound 1]
clinical signs of acute toxicity (squinting, piloerection, loss of motility, general behaviour) [5]: safe for injection
Dark toxicity compared to non-meso analogue [1]: largely unaffected
Dark toxicity μM (IC10) [1]: 10.450 µM
IC90 [2, 9]: 0.176 µM
increase in phototoxicity of meso-compound compared to non-meso analogue ([2]; vs phyllochlorin free acid / phyllochlorin sodium salt): 2.4 fold
pKa of the carboxylic acid (estimated) [6]: less than 5
